The text below walks through data of publication PMC3510196, “Cloning and Characterization of a P2X Receptor Expressed in the Central Nervous System of Lymnaea stagnalis” (PLoS ONE, 2012).

What all share (experiment): two-electrode voltage clamp, Xenopus oocytes
Assay type in all cases: cell-based
In general terms: Two-electrode voltage clamp holds a large cell at a set potential and records current.

Assay [1] deals with T1, LymP2X (Lymnaea stagnalis, UniProt K7QP77).
T1 construct: full-length, 435 residues, shorter clone starting at second in-frame ATG; cRNA injected in Xenopus oocytes; homotrimer expected (P2X family); differs from contig FX193730 in 50 residues of the cysteine-rich head (possible alternative exon)
T1 sequence (K7QP77 1-435): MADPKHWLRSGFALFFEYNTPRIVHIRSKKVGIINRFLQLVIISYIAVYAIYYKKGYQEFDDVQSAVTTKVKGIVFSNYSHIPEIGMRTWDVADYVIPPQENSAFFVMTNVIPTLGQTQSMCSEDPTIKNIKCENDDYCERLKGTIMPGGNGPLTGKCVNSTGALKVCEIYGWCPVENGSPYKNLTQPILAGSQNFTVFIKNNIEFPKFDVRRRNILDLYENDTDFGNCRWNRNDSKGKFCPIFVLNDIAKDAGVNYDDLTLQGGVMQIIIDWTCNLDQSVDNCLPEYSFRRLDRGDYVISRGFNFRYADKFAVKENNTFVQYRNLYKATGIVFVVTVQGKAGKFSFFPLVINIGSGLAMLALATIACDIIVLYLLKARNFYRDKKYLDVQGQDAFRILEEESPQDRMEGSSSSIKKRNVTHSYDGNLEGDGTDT

Assay [2] concerns the target T1, LymP2X. To be noted: weak agonist; pH 7.5, 1.8 mM Ba2+ in place of Ca2+, -60 mV.
Assay [3] addresses T1, LymP2X. The source holds these as a separate data set.
The target in a further assay is T2, LymP2X clone 11 (Lymnaea stagnalis, UniProt K7QP77, INS0MTTK).
T2 construct: full-length plus N-terminal MTTK (upstream in-frame ATG at nucleotide 3) added to LymP2X (GenBank JX524180); Xenopus oocytes
T2 sequence (K7QP77 1-435 INS0MTTK): T1 sequence (K7QP77 1-435)

As for `Cc1nc(N=Nc2ccc(S(=O)(=O)O)cc2S(=O)(=O)O)c(COP(=O)(O)O)c(C=O)c1O` [PPADS], 8.1 µM corresponded to half-maximal inhibition against LymP2X [1] (IC50).
As to `Nc1ncnc2c1ncn2[C@@H]1O[C@H](COP(=O)(O)CP(=O)(O)OP(=O)(O)O)[C@@H](O)[C@H]1O` [αβmeATP], the “% of 10 μM ATP response at 100 μM” value on LymP2X [2] stood at 36.9±10.6%.
Regarding `Cc1ccc(C(=O)Nc2ccc(S(=O)(=O)O)c3cc(S(=O)(=O)O)cc(S(=O)(=O)O)c23)cc1NC(=O)c1cccc(NC(=O)Nc2cccc(C(=O)Nc3cc(C(=O)Nc4ccc(S(=O)(=O)O)c5cc(S(=O)(=O)O)cc(S(=O)(=O)O)c45)ccc3C)c2)c1` [suramin], the 50% inhibitory concentration (IC50) (usually the concentration at which inhibition is half-maximal) against LymP2X [1] stood at 27.4 µM.
For `Nc1ncnc2c1ncn2[C@@H]1O[C@H](COP(=O)(O)OP(=O)(O)OP(=O)(O)O)[C@@H](OC(=O)c2ccc(C(=O)c3ccccc3)cc2)[C@H]1O` [BzATP], the EC50 (commonly the midpoint of the concentration-response curve) on LymP2X [3] was determined as 2.4 µM. This lies in the single-digit micromolar range.
For `Nc1ncnc2c1ncn2[C@@H]1O[C@H](COP(=O)(O)OP(=O)(O)OP(=O)(O)O)[C@@H](O)[C@H]1O` [ATP], the EC50 at LymP2X clone 11 is 5.8 µM; at LymP2X [3] it was 6.2 µM.
